Results on five compounds are retold here after patent US20140228398A1, “COMBINATIONS OF ALPHA 7 NICOTINIC ACETYLCHOLINE RECEPTOR ACTIVATORS AND mGluR5 ANTAGONISTS FOR USE IN DOPAMINE INDUCED [sequence] IN PARKINSON'S DISEASE” (NOVARTIS AG, priority 2011, published 2014).

Series [1] in a line: Oral bioavailability and brain penetration in mice. Type of series: in vivo. As to conditions: 30 μmol/kg p.o., ± SD. Here is the method:
[…] Male mice (30-35g, OF1/ICstrain) were sacrificed at indicated time points after oral administration. Trunk-blood was collected in EDTA-containing tubes and the brain was removed and immediately frozen on dry ice. To 100 μl plasma 10 μl internal standard (1.0 pmol of a compound with solubility and ionization properties similar to test compounds) was added and extracted three times with 500 μl dichloromethane. The combined extracts were then dried under a stream of nitrogen and re-dissolved in 100 μl acetonitrile/water (70% acetonitrile). Brains were weighed and homogenized in water (1:5 w/v). Two 100 μl aliquots of each homogenate+10 μl of internal standard (same standard as used for the plasma samples) were extracted three times with 500 μl dichloromethane and further processed as the plasma samples. Samples were separated on Beckmann high-performance liquid chromatography equipment system with an autosampler (Gilson 233XL).
The limit of detection (LOD), defined as the lowest concentration of the extracted standard sample with a signal to noise ratio of ˜3.

In series [2] the test system is parkinsonian primates. Description: Movement disorder model: antidyskinetic effect in parkinsonian (MPTP) primates. As to conditions: for locomotor response / mean parkinsonian score: parkinsonian primates; for mean parkinsonian score: reduced from 9.4. It is filed as in vivo, cynomolgus monkeys (Macaca fascicularis). The procedure:
Female ovariectomized cynomolgus monkeys (Macaca fascicularis) are used in the assessment. The animals can be rendered parkinsonian by continuous infusion of 1-methyl-4-phenyl-1,2,3,6-tetrahydropyridine (MPTP) until they develop a stable parkinsonian syndrome. After recuperation, animals are treated daily with levodopa until clear and reproducible dyskinesias are developed.
Monkeys are observed through a one-way screen window in their home cage. They are observed and scored repeatedly at baseline and after a standard s.c. dose of levodopa. Locomotor activity is assessed and followed with an electronic monitoring system. Antiparkinsonian responses are evaluated by measuring the locomotor activity and a Parkinson disability scale (see Hadj Tahar A et al, Clin Neuropharmacol 2000; 23:195-202; and Samadi P et al, Neuropharmacology 2003; 45:954-963). Dyskinesias are closely monitored and scored according to a dyskinesia rating scale (also described in Hadj Tahar A et al; and Samadi P et al) every 15 minutes until the end of the effect. The doses of levodopa are chosen to induce motor activation and reproducible dyskinesia but no excessive agitation.
Monkeys are observed for at least two hours following an oral administration of vehicle. On a subsequent day, the dose of levodopa selected is tested once. The animals are observed (with measures of parkinsonian and dyskinetic scores) for the entire duration of the levodopa effect and are also monitored for locomotor activity. This provides vehicle control values as well as levodopa antiparkinsonian and dyskinesia response data for comparison with combinations of a α7-nAChR agonist/positive allosteric modulator and levodopa. The monkeys are then tested with a α7-nAChR agonist/positive allosteric modulator in combination with a fixed dose of levodopa. A suspension for oral administration of the α7-nAChR agonist/positive allosteric modulator is administered before levodopa. After each dose, the animals are observed (with measures of parkinsonian and dyskinetic scores) for the entire duration of effect and monitored for locomotor activity or any change in behavior (e.g. circling, excitement, lethargy and sleepiness).
Using this protocol, compound A-1 at a dose of 20 mg/kg was tested. Results based on five monkeys (levodopa/benserazide doses: 22.5/50 mg; 65/50 mg; 30/50 mg; 35/50 mg; and 25/50 mg) are shown in FIGS. 1-4.
For experiments shown in FIGS. 5 and 6 parkinsonian primates were treated orally with 10 mg/kg MPEP, 20 mg/kg JN403 and a combination of MPEP (10 mg/kg) and JN403 (20 mg/kg). In said experiments, compound MPEP increased the locomotor response from 230 count over 4 h to 810.

Series [3] relates to parkinsonian primates. As to conditions: data published in WO2009047296 and Gregoire et al 2011; cited from earlier work.
Series [4] deals with mice. In words: Social Recognition Test in mice. Type of series: in vivo, mouse. As to conditions: oral, dose 3 mg/kg, familiar partner at 24 h vs time 0. Here is the method:
Social interactions between two experimental animals are influenced by their degree of familiarity: the better they know each other, the less time they spend on mutual scrutiny at each meeting. […] Memory enhancing agents (i.e. oxiracetam) facilitate learning to the extent that the previously met (familiar) partner is still remembered after 24 h, whereas in vehicle treated control animals the memory usually fades after less than 1 hour (Thor and Holloway, 1982) or after 2-3 hours.
Baseline-test: Pairs consisting of one adult and one young mouse were assigned at random to the experimental and control groups. In each pair only the adult mouse was orally treated 1 hour before the trial with either vehicle or the test compound. The duration of active contacts of the adult mouse with the young mouse was manually recorded over a period of 3 min, including the following behavioural, approach-related items: sniffing, nosing, grooming, licking, pawing and playing, anogenital exploration and orientation toward the young mouse; orientation, thereby, was defined as tip of nose of the adult mouse less than approximately 1 cm distant from the young mouse's body. […]

The mark [5] stands for this setting: compound A-1 20 mg/kg oral with levodopa/benserazide, five monkeys.

For `C[C@H]1[C@H](Oc2ccc(-c3ccc4[nH]ccc4c3)nn2)C2CCN1CC2` [B-13, (2S,3R)-3-[6-(1H-indol-5-yl)-pyridazin-3-yloxy]-2-methyl-1-aza-bicyclo[2.2.2]octane], the Brain in series [1] (0.25 hour) worked out at 1884 ± 291 pmol/g; in series [1] (0.5 hour), 2960 ± 706 pmol/g; in series [1] (1 hour), 2940 ± 335 pmol/g; in series [1] (2 hour) it was 1260 ± 172 pmol/g; in series [1] (4 hour) it was 379 ± 134 pmol/g; in series [1] (8 hour) it was 93 ± 30 pmol/g. The Brain in series [1] (24 hour) amounted to 13 ± 4 pmol/g.
Take `Cc1cccc(C#Cc2ccccc2)n1` [F-2, 2-Methyl-6-phenylethynyl-pyridine, reference compound]: the locomotor response in series [2] (oral 10 mg/kg MPEP, increased from 230) is on record as 810 count over 4 h. Moreover, the mean parkinsonian score in series [2] (oral 10 mg/kg MPEP) is reported as 8.2.
For the compound `Cc1cc(/C(=C/Nc2ccc(Cl)cc2)C(=O)Nc2ccc(Cl)cc2)on1` [E-1, (Z)—N-(4-Chloro-phenyl)-3-(4-chloro-phenylamino)-2-(3-methyl-isoxazol-5-yl)-acrylamide], in series [3], the L-dopa induced dyskinesias result is listed as “able to reduce L-dopa induced dyskinesias”.
Turning to `c1cc2cc(-c3cnc(O[C@H]4CCN5CCC[C@@H]4C5)nc3)ccc2[nH]1` [C-1, (4S,5R)-4-[5-(1H-indol-5-yl)-pyrimidin-2-yloxy]-1-aza-bicyclo[3.3.1]nonane], the Brain in series [1] (0.25 hour) stood at 620 ± 221 pmol/g; in series [1] (0.5 hour), 1405 ± 539 pmol/g; in series [1] (1 hour) it was 1458 ± 189 pmol/g; in series [1] (2 hour), 1478 ± 259 pmol/g; in series [1] (4 hour), 842 ± 187 pmol/g; in series [1] (8 hour), 362 ± 62 pmol/g.
`C[C@H](OC(=O)N[C@@H]1CN2CCC1CC2)c1ccccc1F` [A-1, (S)-(1-aza-bicyclo[2.2.2]oct-3-yl)-carbamic acid (S)-1-(2-fluoro-phenyl)-ethyl ester]: the Brain was 706.3 ± 153.4 pmol/g in series [1] (0.5 hour); 573.7 ± 109.3 pmol/g in series [1] (1 hour); 191.9 ± 34.9 pmol/g in series [1] (2 hour); 104.6 ± 39.6 pmol/g in series [1] (4 hour); 40.5 ± 12.1 pmol/g in series [1] (6 hour); 9.1 ± 2.7 pmol/g in series [1] (24 hour). The Plasma in series [1] (0.5 hour) worked out at 634.9 ± 261.3 pmol/mL; in series [1] (1 hour), 684.7 ± 339.6 pmol/mL; in series [1] (2 hour), 168.2 ± 91.3 pmol/mL; in series [1] (4 hour), 85.0 ± 54.3 pmol/mL; in series [1] (6 hour), 29.5 ± 13.8 pmol/mL; in series [1] (24 hour) it was 3.8 ± 0.6 pmol/mL. The “Reduction in time scrutinizing in % ± SEM at 24 h” value in series [4] came to 52 ± 4%. Besides, the “antiparkinsonian activity of levodopa (antiparkinsonian score)” value in series [2] (setting [5]) is recorded as “does not lower the antiparkinsonian activity of levodopa”. In addition, the “onset of action of levodopa (Elapsed Time after Levodopa Administration)” value in series [2] (setting [5]) is reported as “does not delay the onset of action of levodopa”. Further, the “Duration of Levodopa-Response” value in series [2] (compound A-1 20 mg/kg oral with levodopa/benserazide, five monkeys, extended from 230 minutes) stood at 265 min. In addition, the “Mean Dyskinesia Score (total period)” value in series [2] (compound A-1 20 mg/kg oral with levodopa/benserazide, five monkeys, reduced from 2.8) amounted to 2.1. For the same compound, the locomotor response entry in series [2] (oral 20 mg/kg JN403, baseline 230 count over 4 h) was “no effect”. Also, the mean parkinsonian score in series [2] (oral 20 mg/kg JN403) is on record as 9.0.
